From patent US7247617B2, “Sixteen-member macrolide antiinfective agents” (Kosan Biosciences Incorporated, priority 2004, dated 2007)

Legend:
S. epidermidis = experiment: Biological activity against bacterial strains: S. epidermidis; assay type: cell-based, Staphylococcus epidermidis; conditions: strain ATCC12228
S. aureus = experiment: Biological activity against bacterial strains: S. aureus; assay type: cell-based, Staphylococcus aureus; set-up: unit not given here; conditions: for Biological Activity, S. aureus ATCC6538p: strain ATCC6538p; for Biological Activity, S. aureus ATCC14154*: strain ATCC14154, macrolide resistant strain; for Biological Activity, S. aureus ATCC29213: strain ATCC29213; for Biological Activity, S. aureus ATCC33591*: strain ATCC33591, macrolide resistant strain; for Biological Activity, S. aureus ATCCBAA-39*: strain ATCCBAA-39, macrolide resistant strain; for Biological Activity, S. aureus ATCCBAA-44*: strain ATCCBAA-44, macrolide resistant strain
S. pneumoniae = experiment: Biological activity against bacterial strains: S. pneumoniae; assay type: cell-based, Streptococcus pneumoniae; set-up: Biological Activity, S. pneumoniae ATCC6301 / Biological Activity, S. pneumoniae ATCC700671 / Biological Activity, S. pneumoniae ATCC700676* / Biological Activity, S. pneumoniae ATCC700677* / Biological Activity, S. pneumoniae ATCC700905* / Biological Activity, S. pneumoniae ATCC700906* / Biological Activity, S. pneumoniae ATCC49619: unit not given here; conditions: for Biological Activity, S. pneumoniae ATCC6301: strain ATCC6301; for Biological Activity, S. pneumoniae ATCC49619: strain ATCC49619; for Biological Activity, S. pneumoniae ATCC700671: strain ATCC700671; for Biological Activity, S. pneumoniae ATCC700676*: strain ATCC700676, macrolide resistant strain; for Biological Activity, S. pneumoniae ATCC700677*: strain ATCC700677, macrolide resistant strain; for Biological Activity, S. pneumoniae ATCC700905*: strain ATCC700905, macrolide resistant strain; for Biological Activity, S. pneumoniae ATCC700906*: strain ATCC700906, macrolide resistant strain
E. faecalis = experiment: Biological activity against bacterial strains: E. faecalis; assay type: cell-based, Enterococcus faecalis; conditions: strain ATCC51575

Compound | Biological Activity, S. epidermidis ATCC12228 (S. epidermidis) | Biological Activity, S. aureus ATCC6538p (S. aureus) | Biological Activity, S. aureus ATCC14154* (S. aureus) | Biological Activity, S. aureus ATCC29213 (S. aureus) | Biological Activity, S. aureus ATCC33591* (S. aureus) | Biological Activity, S. aureus ATCCBAA-39* (S. aureus) | Biological Activity, S. aureus ATCCBAA-44* (S. aureus) | Biological Activity, S. pneumoniae ATCC6301 (S. pneumoniae) | Biological Activity, S. pneumoniae ATCC49619 (S. pneumoniae) | Biological Activity, S. pneumoniae ATCC700671 (S. pneumoniae) | Biological Activity, S. pneumoniae ATCC700676* (S. pneumoniae) | Biological Activity, S. pneumoniae ATCC700677* (S. pneumoniae) | Biological Activity, S. pneumoniae ATCC700905* (S. pneumoniae) | Biological Activity, S. pneumoniae ATCC700906* (S. pneumoniae) | Biological Activity, E. faecalis ATCC51575 (E. faecalis)
CC[C@H]1OC(=O)C[C@@H](O)[C@H](C)[C@@H](O[C@@H]2O[C@H](C)[C@@H](O[C@H]3C[C@@](C)(O)[C@@H](O)[C@H](C)O3)[C@H](N(C)C)[C@H]2O)[C@@H](CC=O)C[C@@H](C)C(=O)/C=C/C(C)=C/[C@@H]1CO[C@@H]1O[C@H](C)[C@@H](O)[C@@H](OC)[C@H]1OC [Tyl, tylosin, reference compound] | 0.39 | 0.20 | 1.56 | 1.56 | >12.5 | >12.5 | >12.5 | 0.098 | 0.098 | 0.20 | 0.20 | >12.5 | 0.20 | >12.5 | >12.5
CCC1OC(=O)CC(O)C(C)C(OC2OC(C)C(O)C(N(C)C)C2O)C(CC=O)CC(C)C(=NOCC#Cc2cnc3ccccc3c2)C=CC(C)=CC1CO (single isomer, unassigned) [Compound D] | 0.20 | 0.098 | 0.78 | 0.39 | >12.5 | >12.5 | >12.5 | 0.025 | 0.049 | 0.049 | 0.049 | >12.5 | 0.049 | >12.5 | >12.5
CCC1OC(=O)CC(O)C(C)C(OC2OC(C)C(O)C(N(C)C)C2O)C(CCN2CC(C)CC(C)C2)CC(C)C(=NOCc2ccc(F)cc2)C=CC(C)=CC1COC1OC(C)C(O)C(OC)C1OC (single isomer, unassigned) [Compound P] | 0.78 | 0.39 | 6.25 | 0.78 | >12.5 | >12.5 | >12.5 | 0.39 | 0.78 | 0.78 | 3.12 | 6.25 | 3.12 | 12.5 | >12.5
CCC1OC(=O)CC(O)C(C)C(OC2OC(C)C(O)C(N(C)C)C2O)C(CC=O)CC(C)C(=NOCCCOc2ccc3ncccc3c2)C=CC(C)=CC1COC1OC(C)C(O)C(OC)C1OC (single isomer, unassigned) [Compound AA] | 0.78 | 0.39 | 0.78 | 0.78 | >12.5 | >12.5 | >12.5 | 0.025 | 6.25 | >12.5 | 0.049 | 6.25 | 6.25 | >12.5 | >12.5
CCC1OC(=O)CC(O)C(C)C(OC2OC(C)C(O)C(N(C)C)C2O)C(CC=O)CC(C)C(=NOCC=Cc2cnc3ccccc3c2)C=CC(C)=CC1CO (single isomer, unassigned) [Compound F] | 0.049 | 0.098 | 0.39 | 0.39 | >12.5 | >12.5 | >12.5 | 0.025 | 0.025 | 0.049 | 0.049 | >12.5 | 0.049 | >12.5 | >12.5
CC[C@H]1OC(=O)C[C@@H](O)[C@H](C)[C@@H](OC2OC(C)C(O)C(N(C)C)C2O)[C@@H](CC=O)C[C@@H](C)C(=N\OCc2ccc(F)cc2)/C=C/C(C)=C/C1CO (stereo partly drawn) [Compound IIc] | 1.56 | 0.78 | 1.56 | 1.56 | >12.5 | >12.5 | >12.5 | 0.2 | 0.2 | 0.39 | 0.2 | 3.12 | 0.39 | >12.5 | >12.5
CCC1OC(=O)CC(O)C(C)C(OC2OC(C)C(O)C(N(C)C)C2O)C(CCN2CC(C)CC(C)C2)CC(C)C(=NOCCOc2ccccc2)C=CC(C)=CC1COC1OC(C)C(O)C(OC)C1OC (stereo not drawn) [Compound O] | 0.39 | 0.20 | 0.78 | 0.39 | >12.5 | >12.5 | >12.5 | 0.39 | 0.78 | 0.39 | 1.56 | 6.25 | 0.78 | 12.5 | >12.5
CCC1OC(=O)CC(O)C(C)C(OC2OC(C)C(O)C(N(C)C)C2O)C(CCN2CC(C)CC(C)C2)CC(C)C(=NOCCCOc2ccc3ncccc3c2)C=CC(C)=CC1CO (stereo not drawn) [Compound R] | >12.5 | 12.5 | >12.5 | >12.5 | >12.5 | >12.5 | >12.5 | 6.25 | 6.25 | 6.25 | >12.5 | >12.5 | >12.5 | >12.5 | >12.5
